Experimental data from US20090054392A1, “NAPHTHYLPYRIMIDINE, NAPHTHYLPYRAZINE AND NAPHTHYLPYRIDAZINE ANALOGS AND THEIR USE AS AGONISTS OF THE WNT-BETA-CATENIN CELLULAR MESSAGING SYSTEM” (Wyeth, priority 2007, published 2009).
Like-named read-outs stand apart in the source and are kept apart here.

Tested on: Dkk1-LRP5-TCF-Luciferase
Experiment: Functional Dkk1-LRP5-TCF-Luciferase Assay in U2OS Cells
Details: for fold induction at 20 µM: read-out: C = TCF ACTIVITY/DMSO CONTROL Fold induction @ 20.0 uM, 20.0 uM compound; for A = MAX FOLD Induction/DMSO CONTROL: maximum fold induction over DMSO control; for fold induction at 2 µM: read-out: B = TCF ACTIVITY/DMSO CONTROL Fold induction @ 2.0 uM, 2.0 uM compound
Experimental: Biological Evaluation—Functional Dkk1-LRP5-TCF-Luciferase Assay in U2OS Cells
Frozen U2OS-Dkk1-HTS Reporter cells generation: U2OS Human Bone derived cells (Osteosarcoma) are grown in McCoy's 5A Medium (Modified), with L -glutamine (GIBCO Cat No. 16600-082)+1% Pen-Strep+5% FBS) plated at 1×10^7 cells/T175 cm flask. The next day, the cells are co-transfected overnight with the following plasmids: (a) Test reporter (16×TCF-TK-FireFly-Luci), (b) Internal Control Reporter (TK-Renilla-Luci), (c) Wnt3a and (d) Dkk1. GIBCO's Lipofectamine 2000 and OptiMEM are used for the transfection. After a minimum of 4 hr of transfection at 37° C., the plasmid-transfected cells are trypsinized, counted, and suspended in freezing medium (95% FBS+5% DMSO). The reporter cells are frozen at 1×10^7/ml concentrations, aliquoted into 0.5 ml or 2.5 ml/tube and stored at 70° C.
The following day, test compounds are added under HTS setup by Plate Track into 384 well plates (white, TC treated, Falcon plate) such that the final concentration of the compounds in 20 μL/well cell will be 5 μg/ml (final concentration of DMSO=0.25% and final compound concentration=20 μM). Vials of frozen reporter cells are thawed by warming the vial in a 37° C. water bath for 60-120 seconds with some shaking until the cells formed a suspension. The thawed cells are transferred into a cold 50 ml (or larger) tube and mixed well by gentle pipetting. The appropriate amount of cold Phenol Red Free RPMI medium-1640 (GIBCO, Cat #11835-030) with L-glutamine is added, both with ˜5% FBS (GIBCO-BRL, Cat. #16000-044), so that 20 μl of the final cell suspension will contain ˜5,000 cells. The cell dilution is done such that the final concentration of FBS is ˜5%.
Diluted cells (20 μl) are added into each well in a 384 well plate. The plate is incubated at 37° C. under 5% CO2 for ˜20 h. Bright-Glo substrate, 2.5 μl/well is added, and the Fire Fly Luciferase is measured using VLUX (60 second exposure) immediately after the substrate is added. Test compounds are dissolved in DMSO (100%) and added to specified wells. Raw luciferase signal data obtained as relative luminescence units (RLUs) for the test compounds are normalized to the signal of the mean of the sample reporter cell plate with DMSO.

Row | EC50 (Homo sapiens, U2OS) | A = MAX FOLD Induction/DMSO CONTROL | EC50 | C = TCF ACTIVITY/DMSO CONTROL Fold induction @ 20.0 uM (20.0 uM compound, 20 µM) | Compound | fold induction at 20 µM (Homo sapiens, U2OS) | fold induction at 2 µM (Homo sapiens, U2OS)
1 | 3.55 µM | 3.380 fold |  |  | CS(=O)(=O)N1CC[C@@H](Nc2nccc(-c3ccc4ccccc4c3)n2)C1 [N-[(3R)-1-(methylsulfonyl)pyrrolidin-3-yl]-4-(2-naphthyl)pyrimidin-2-amine] | 3.46 | 
2 |  |  |  |  | CN[C@H]1CCN(c2nccc(-c3ccc4ccccc4c3)n2)C1 [(3S)—N-methyl-1-[4-(2-naphthyl)pyrimidin-2-yl]pyrrolidin-3-amine] |  | 1.75
3 |  |  |  |  | CS(=O)(=O)N1CC(CNc2nccc(-c3ccc4ccccc4c3)n2)C1 [N-{[1-(methylsulfonyl)azetidin-3-yl]methyl}-4-(2-naphthyl)pyrimidin-2-amine] | 1.52 | 
4 |  |  |  |  | CN(CCN(C)S(=O)(=O)c1ccccc1)[C@@H]1CCN(c2nccc(-c3ccc4ccccc4c3)n2)C1 [N-methyl-N-[2-(methyl{(3R)-1-[4-(2-naphthyl)pyrimidin-2-yl]pyrrolidin-3-yl}amino)ethyl]benzenesulfonamide] | 1.4 | 
5 | 8 µM |  | 8.59 µM | 1.687 fold | c1ccc2cc(-c3ccnc(N4CCC(CN5CCCCC5)CC4)n3)ccc2c1 [4-(2-naphthyl)-2-[4-(piperidin-1-ylmethyl)piperidin-1-yl]pyrimidine] | 2.8 | 1.09
6 |  | 1.380 fold |  |  | NCC1CCN(C(=O)c2nccc(-c3ccc4ccccc4c3)n2)CC1 [1-(1-{[4-(2-naphthyl)pyrimidin-2-yl]carbonyl}piperidin-4-yl)methanamine] | 1.42 | 0.46
7 |  |  |  |  | CN(c1nccc(-c2ccc3ccccc3c2)n1)C1CCN(C(N)=O)CC1 [4-{methyl[4-(2-naphthyl)pyrimidin-2-yl]amino}piperidine-1-carboxamide] | 0.63 | 1.65
8 |  |  |  |  | O=C(N1CCCN(c2nccc(-c3ccc4ccccc4c3)n2)CC1)C(F)(F)F [1-[4-(2-naphthyl)pyrimidin-2-yl]-4-(trifluoroacetyl)-1,4-diazepane] | 1.24 | 
9 |  |  |  |  | CN(C)C(=O)[C@@H]1CCCN1c1nccc(-c2ccc3ccccc3c2)n1 [N,N-dimethyl-1-[4-(2-naphthyl)pyrimidin-2-yl]-L-prolinamide] | 1.24 | 1
10 |  |  |  |  | CCNC(=O)NCC1CCN(c2nccc(-c3ccc4ccccc4c3)n2)CC1 [N-ethyl-N′-({1-[4-(2-naphthyl)pyrimidin-2-yl]piperidin-4-yl}methyl)urea] | 1.34 | 1.7
11 |  |  |  |  | CC(C)(C)OC(=O)NC1CCCN(c2nccc(-c3ccc4ccccc4c3)n2)CC1 (stereo not shown) [tert-butyl {1-[4-(2-naphthyl)pyrimidin-2-yl]azepan-4-yl}carbamate] | 0.33 | 1.34
12 |  |  |  |  | CN(C)CCCN(C)[C@@H]1CCN(c2nccc(-c3ccc4ccccc4c3)n2)C1 [N,N,N′-trimethyl-N′-{(3R)-1-[4-(2-naphthyl)pyrimidin-2-yl]pyrrolidin-3-yl}propane-1,3-diamine] |  | 1.3
13 |  |  |  |  | CC(C)(C)OC(=O)N1CCC(CNc2nccc(-c3ccc4ccccc4c3)n2)CC1 [tert-butyl 4-({[4-(2-naphthyl)pyrimidin-2-yl]amino}methyl)piperidine-1-carboxylate] | 1.18 | 0.93
14 |  |  |  |  | Cc1ccc(S(=O)(=O)N[C@@H]2CCN(c3nccc(-c4ccc5ccccc5c4)n3)C2)cc1 [4-methyl-N-{(3R)-1-[4-(2-naphthyl)pyrimidin-2-yl]pyrrolidin-3-yl}benzenesulfonamide] | 0.09 | 1.44
15 |  | 2.335 fold |  |  | CN(C)[C@@H]1CCN(C(=O)[C@@H]2CCCN2c2nccc(-c3ccc4ccccc4c3)n2)C1 [(3R)—N,N-dimethyl-1-{1-[4-(2-naphthyl)pyrimidin-2-yl]-L-prolyl}pyrrolidin-3-amine] | 4.43 | 1.1
16 |  | 1.290 fold |  |  | c1ccc2cc(-c3ccnc(N4CC[C@@H](N5CCOCC5)C4)n3)ccc2c1 [4-{(3R)-1-[4-(2-naphthyl)pyrimidin-2-yl]pyrrolidin-3-yl}morpholine] | 2.45 | 1.2
17 |  |  |  |  | NC[C@H]1C[C@@H]2C[C@H]1CN2c1nccc(-c2ccc3ccccc3c2)n1 [1-{(1R,4R,5S)-2-[4-(2-naphthyl)pyrimidin-2-yl]-2-azabicyclo[2.2.1]hept-5-yl}methanamine] |  | 1.8
18 |  |  |  |  | CCOC(=O)N1CC[C@@H](Nc2nccc(-c3ccc4ccccc4c3)n2)C1 [ethyl (3R)-3-{[4-(2-naphthyl)pyrimidin-2-yl]amino}pyrrolidine-1-carboxylate] | 1.3 | 
19 |  |  |  |  | CN(C)S(=O)(=O)N[C@H]1CCN(c2nccc(-c3ccc4ccccc4c3)n2)C1 [N,N-dimethyl-N′-{(3S)-1-[4-(2-naphthyl)pyrimidin-2-yl]pyrrolidin-3-yl}sulfamide] |  | 1.87

Row | EC50 (Homo sapiens, U2OS) | A = MAX FOLD Induction/DMSO CONTROL | EC50 | C = TCF ACTIVITY/DMSO CONTROL Fold induction @ 20.0 uM (20.0 uM compound, 20 µM) | Compound | fold induction at 20 µM (Homo sapiens, U2OS) | fold induction at 2 µM (Homo sapiens, U2OS)
20 | 18.2 µM | 2.280 fold |  |  | CCNC(=O)N1CCC(Nc2nccc(-c3ccc4ccccc4c3)n2)CC1 [N-ethyl-4-{[4-(2-naphthyl)pyrimidin-2-yl]amino}piperidine-1-carboxamide] | 1.6 | 1.14
21 |  |  |  |  | CCC(C)Nc1nccc(-c2ccc3ccccc3c2)n1 (stereo not shown) [N-(sec-butyl)-4-(2-naphthyl)pyrimidin-2-amine] | 1.34 | 1.01
22 |  |  |  |  | CC(C)(C)OC(=O)N1CCC(Nc2nccc(-c3ccc4ccccc4c3)n2)CC1 [tert-butyl 4-{[4-(2-naphthyl)pyrimidin-2-yl]amino}piperidine-1-carboxylate] | 1.41 | 1
23 | 3.16 µM | 2.510 fold |  |  | CN(C)S(=O)(=O)N1CC[C@@H](Nc2nccc(-c3ccc4ccccc4c3)n2)C1 [(3R)—N,N-dimethyl-3-{[4-(2-naphthyl)pyrimidin-2-yl]amino}pyrrolidine-1-sulfonamide] | 2.31 | 
24 |  |  |  |  | CN(C)C(=O)[C@H]1CCCN1c1nccc(-c2ccc3ccccc3c2)n1 [N,N-dimethyl-1-[4-(2-naphthyl)pyrimidin-2-yl]-D-prolinamide] | 1.2 | 1.02
25 |  |  |  |  | COC(=O)NCCC1CCN(c2nccc(-c3ccc4ccccc4c3)n2)CC1 [methyl (2-{1-[4-(2-naphthyl)pyrimidin-2-yl]piperidin-4-yl}ethyl)carbamate] | 0.89 | 1.39
26 |  |  |  |  | CN(C)S(=O)(=O)N[C@@H]1CCN(c2nccc(-c3ccc4ccccc4c3)n2)C1 [N,N-dimethyl-N′-{(3R)-1-[4-(2-naphthyl)pyrimidin-2-yl]pyrrolidin-3-yl}sulfamide] | 0.82 | 1.42
27 |  |  |  |  | O=C(Cc1ccccc1)N1CCC(CNc2nccc(-c3ccc4ccccc4c3)n2)CC1 [4-(2-naphthyl)-N-{[1-(phenylacetyl)piperidin-4-yl]methyl}pyrimidin-2-amine] | 1.87 | 1.03
28 |  |  |  |  | CC(C)(C)OC(=O)NC1CCCC(Nc2nccc(-c3ccc4ccccc4c3)n2)C1 (stereo not shown) [tert-butyl (3-{[4-(2-naphthyl)pyrimidin-2-yl]amino}cyclohexyl)carbamate] | 0.3 | 1.07
29 |  |  |  |  | CN(C[C@H]1CCN(c2nccc(-c3ccc4ccccc4c3)n2)C1)C1CCCCC1 [N-methyl-N-({(3R)-1-[4-(2-naphthyl)pyrimidin-2-yl]pyrrolidin-3-yl}methyl)cyclohexanamine] | 1.6 | 1.27
30 |  |  |  |  | O[C@H]1CCN([C@@H]2CCN(c3nccc(-c4ccc5ccccc5c4)n3)C2)C1 [(3S,3′R)-1′-[4-(2-naphthyl)pyrimidin-2-yl]-1,3′-bipyrrolidin-3-ol] | 3 | 
31 | 1.98 µM | 3.390 fold |  |  | NCC1CCN(c2nccc(-c3ccc4ccccc4c3)n2)CC1 [({1-[4-(2-naphthyl)pyrimidin-2-yl]piperidin-4-yl}methyl)amine] | 0.143 | 2.23
32 |  |  |  |  | COC(=O)C1CCN(c2nccc(-c3ccc4ccccc4c3)n2)CC1 [methyl 1-[4-(2-naphthyl)pyrimidin-2-yl]piperidine-4-carboxylate] | 1.39 | 
33 | 28.5 µM | 2.260 fold |  |  | CCC(=O)N1CCCN(c2nccc(-c3ccc4ccccc4c3)n2)CC1 [1-[4-(2-naphthyl)pyrimidin-2-yl]-4-propionyl-1,4-diazepane] | 2.23 | 
34 |  |  |  |  | O=CN1CCCN(c2nccc(-c3ccc4ccccc4c3)n2)CC1 [4-[4-(2-naphthyl)pyrimidin-2-yl]-1,4-diazepane-1-carbaldehyde] | 1.88 | 0.87
35 | 22.9 µM | 3.080 fold |  |  | NCC1CN(c2nccc(-c3ccc4ccccc4c3)n2)C1 [1-{1-[4-(2-naphthyl)pyrimidin-2-yl]azetidin-3-yl}methanamine] | 0.71 | 2.56
36 | 4.11 µM | 5.503 fold |  |  | CN(C)C1CCN(c2nccc(-c3ccc4ccccc4c3)n2)C1 (stereo not shown) [N,N-dimethyl-1-[4-(2-naphthyl)pyrimidin-2-yl]pyrrolidin-3-amine] | 1.91 | 2
37 |  |  |  |  | c1ccc2cc(-c3ccnc(N4CC[C@@H](NCCN5CCOCC5)C4)n3)ccc2c1 [(3R)—N-(2-morpholin-4-ylethyl)-1-[4-(2-naphthyl)pyrimidin-2-yl]pyrrolidin-3-amine] | 0.21 | 1.71
38 | 1.59 µM | 3.226 fold |  |  | NCC1CCN(c2cc(-c3ccc4ccccc4c3)ncn2)CC1 [1-{1-[6-(2-naphthyl)pyrimidin-4-yl]piperidin-4-yl}methanamine] | 1 | 2.79
